Results as given in US20230404994A1, “MARKERS OF TISSUE AGING AND USES THEREFOR” (The University of Newcastle, priority 2017, published 2023).
“Also recorded” adds a separate entry of the source.

Legend:
[1] = system: serum starved placental explants; experiment: Placental explant culture in serum-free medium, 4HNE / LC3B / LAMP2 immunohistochemistry; format: cell-based, human; details: 24 hr of treatment; for disturbance in autophagosome size / disturbance in lysosomal location: serum starved placental explants; for production of 4HNE (induced by serum starvation): term placental explants, serum-free medium, 1 nM, p<0.05 (N=6)
From the text: For in vitro experiments, human term placentas (38-39 weeks of gestation) were obtained from women with normal singleton pregnancies without any symptoms of labour after an elective (a scheduled repeat) caesarean section. Placentas were collected immediately after delivery and prepared for explant culture. Villous tissues of placentas were randomly sampled from different regions of placenta and 4-5 mm beneath the chorionic plate. Tissues were washed several times with Dulbecco's phosphate-buffered saline (DPBS) under sterile condition to remove excess blood.
Villous explants of ˜2 mm^3 were dissected and placed into 100×20 mm culture dishes (30 pieces/dish) containing 25 ml of Dulbecco's modified Eagle's medium (DMEM) supplemented with 2 mM L-glutamine, 1% Na-pyruvate, 1% penicillin/streptomycin (100×) solution with the addition of 10% (v/v) fetal bovine serum (FBS) and were cultured in a cell culture chamber at 37° C. temperature and maintaining 95% air (20% oxygen) and 5% CO2 for 24 hours. At day 2, villous explants were transferred to fresh 30 ml growth medium and incubated in a cell culture chamber for 90 minutes. After this the tissues were washed in DMEM without FBS (refer to as ‘serum-free medium’ or ‘growth factor deficient medium’). Next 6-7 pieces of villous tissue weighing approximately 400 mg were transferred to a culture dish (60×15 mm) containing 6 ml serum-free medium with or without the addition of pharmacological agents, for example, raloxifene (1 nM) and GPER1 agonist G1 (1 nM), for subsequent incubation up to 24 h. At the end of 24 h some tissues were fixed in 2% formaldehyde, subjected to routine histological processing and embedded in paraffin wax, and some tissues were immediately frozen in liquid nitrogen and stored at −80° C. until subsequent experiments. For each placental explant culture, samples were also collected at time ‘0 (zero)’ h i.e., before incubation in serum free medium, and were formalin fixed and stored frozen at −80° C. until further experiments.
6 μm paraffin placental sections were deparaffinised and hydrated, then heated with tris-EDTA buffer (pH 9) in a microwave oven for antigen retrieval. The sections were blocked with 1% BSA in TBST for an hour at room temperature. The sections were incubated with primary antibodies overnight and washed three times with TBST, before incubation with Alexa-conjugated secondary antibodies for 90 mins. The sections were mounted with antifade solution with DAPI. The fluorescent photographs for FIGS. 3 to 7, 9 and 11 were taken on a Nikon eclipse 90i confocal microscope. The fluorescent photographs for FIG. 10 were taken on Nikon eclipse Ti fluorescence microscope.
The present data provide clear evidence for increased lipid oxidation, disordered lysosome-autophagosome interactions and increased AOX1 expression in the post-dated and stillbirth placental syncytiotrophoblast. To determine if these events were causally linked the inventors developed a placental explant culture system using term placental tissue cultured in serum-free (growth factor deficient) medium.
The inventors sought to determine cause and effect relationships between the development of lipid oxidation observed when placental explants were cultured in the absence of serum and AOX1. The GPER agonist G-1 was used to inhibit aldehyde oxidase. The potent AOX1 inhibitor, raloxifene, was also used.

kidney = details: Lindsey et al., 2011, Hypertension, 58: 665-671; cited from earlier work

SMILES	disturbance in autophagosome size [1]	disturbance in lysosomal location [1]	production of 4HNE (induced by serum starvation) [1]	production of 4HNE in the kidney (kidney)
CC(=O)c1ccc2c(c1)C1C=CCC1C(c1cc3c(cc1Br)OCO3)N2 (stereo not shown) [G1, 1-[4-(6-bromobenzo[1,3]dioxol-5yl)-3a,4,5,9b-tetrahydro-3H-cyclopenta[c]quinolin-8-yl]-ethanone]	able to block	able to block	inhibited the production of 4HNE; also recorded: significantly reduced	inhibit production of 4HNE in the kidney
O=C(c1ccc(OCCN2CCCCC2)cc1)c1c(-c2ccc(O)cc2)sc2cc(O)ccc12 [raloxifene]	able to block	able to block	inhibited the production of 4HNE; also recorded: significantly reduced	
